Test results published in US11214803B2, “Modulators of YAP1 expression” (Ionis Pharmaceuticals, Inc., priority 2019, dated 2022).
Strand notation (5' to 3'): a small letter for the sugar, then the base; units joined by * are phosphorothioate-linked, units joined directly phosphodiester-linked; [ ] holds rarer units or linkages, { } end groups; capitals alone tell only the bases. k = constrained ethyl (cEt); [5mC] = 5-methylcytosine; d = 2'-deoxy (DNA)

How the values were obtained:
NCI H747 cells = assay: Cell proliferation assay in NCI H747 cells, CellTiter-Glo (Example 31); type: cell-based, human; conditions: free uptake, 7 days
Description: Modified oligonucleotides described in the studies above were tested at various doses in colorectal adenocarcinoma cell line NCI H747. A control oligonucleotide 792169 was also tested.
Cultured NCI H747 cells at a density of 3000 cells/well were treated using free uptake with modified oligonucleotides diluted to concentrations described in the tables below. After 7 days, cell proliferation was measured using the luminescent cell viability CellTiter-Glo® 2.0 Assay (Promega). Results are presented in the tables below as percent control of the amount of luminescence in samples treated with modified oligonucleotides relative to untreated control cells (% UTC).

Yap1 mRNA [1] = assay: Yap1 mRNA in CAL33 cells, RNA analysis (Example 36); type: cell-based, human; conditions: free uptake, approximately 48 hours
Description: Modified oligonucleotides described in the studies above were tested at various doses in tongue squamous cell carcinoma line CAL33. A control oligonucleotide 792169, described herein above, was also tested.
Cultured CAL33 cells at a density of 5000 cells per well were treated using free uptake with modified oligonucleotides diluted to concentrations described in the tables below. After approximately 48 hours, Yap1 mRNA levels were measured as previously described using the Human Yap1 primer-probe set RTS4814. Yap1 mRNA levels were normalized to actin-beta content, as measured by primer probe set RTS5002. Results are presented in the tables below as percent control of the amount of Yap1 mRNA relative to untreated control cells (% UTC).

SNU-1066 cells = assay: Cell proliferation assay in SNU-1066 cells, CellTiter-Glo (Example 44); type: cell-based, human; conditions: free uptake, approximately 144 hours
Description: Modified oligonucleotides described in the studies above were tested at various doses in laryngeal squamous cell carcinoma line SNU-1066. A control oligonucleotide 792169, described herein above, was also tested.
Cultured SNU-1066 cells at a density of 1000 cells/well were treated using free uptake with modified oligonucleotides diluted to concentrations described in the tables below. After approximately 144 hours, cell proliferation was measured using the luminescent cell viability CellTiter-Glo® 2.0 Assay (Promega). Results are presented in the tables below as percent control of the amount of luminescence in samples treated with modified oligonucleotides relative to untreated control cells (% UTC).

Yap1 mRNA [2] = assay: Yap1 mRNA in SCC-9 cells, RNA analysis (Example 40); type: cell-based, human; conditions: free uptake, approximately 48 hours
Description: Modified oligonucleotides described in the studies above were tested at various doses in tongue squamous cell carcinoma cell line SCC-9. A control oligonucleotide 792169, described herein above, was also tested.
Cultured SCC-9 cells at a density of 5000 cells per well were treated using free uptake with modified oligonucleotides diluted to concentrations described in the tables below. After approximately 48 hours, Yap1 mRNA levels were measured as previously described using the Human Yap1 primer-probe set RTS4814. Yap1 mRNA levels were normalized to actin-beta content, as measured by primer probe set RTS5002. Results are presented in the tables below as percent control of the amount of Yap1 mRNA relative to untreated control cells (% UTC).

Yap1 mRNA [3] = assay: Yap1 mRNA in SCC-4 cells, RNA analysis (Example 39); type: cell-based, human; conditions: free uptake, approximately 48 hours
Description: Modified oligonucleotides described in the studies above were tested at various doses in tongue squamous cell carcinoma cell line SCC 4. A control oligonucleotide 792169, described herein above, was also tested.
Cultured SCC-4 cells at a density of 5000 cells per well were treated using free uptake with modified oligonucleotides diluted to concentrations described in the tables below. After approximately 48 hours, Yap1 mRNA levels were measured as previously described using the Human Yap1 primer-probe set RTS4814. Yap1 mRNA levels were normalized to actin-beta content, as measured by primer probe set RTS5002. Results are presented in the tables below as percent control of the amount of Yap1 mRNA relative to untreated control cells (% UTC).

Yap1 mRNA [4] = assay: Yap1 mRNA in BICR56 cells, RNA analysis (Example 33); type: cell-based, human; conditions: free uptake, approximately 48 hours
Description: Modified oligonucleotides described in the studies above were tested at various doses in squamous cell carcinoma adherent keratinocyte cell line BICR56. A control oligonucleotide 792169 was also tested.
Cultured BICR56 cells at a density of 5000 cells per well were treated using free uptake with modified oligonucleotides diluted to concentrations described in the tables below. After approximately 48 hours, Yap1 mRNA levels were measured as previously described using the Human Yap1 primer-probe set RTS4814. Yap1 mRNA levels were normalized to actin-beta content, as measured by primer probe set RTS5002. Results are presented in the tables below as percent control of the amount of Yap1 mRNA relative to untreated control cells (% UTC).

[5] = Tolerability in CD-1 mice, plasma chemistry markers (Example 19); type: in vivo; conditions: male CD-1 mice, 50 mg/kg s.c. twice a week for four weeks (8 treatments), day 26
Description: CD-1 mice were treated with modified oligonucleotides selected from studies described above and evaluated for changes in the levels of various plasma chemistry markers.
(§1) Groups of four male CD-1 mice at 4-6 weeks of age (obtained from Charles River) were injected subcutaneously twice a week for four weeks (for a total of 8 treatments) with 50 mg/kg of modified oligonucleotides. One group of male CD-1 mice was injected with PBS. Mice were euthanized on day 26 post start of treatment (24 hrs following the final administration).

[6] = Tolerability in CD-1 mice, body and organ weights (Example 19); type: in vivo; conditions: male CD-1 mice, 50 mg/kg s.c. twice a week for four weeks (8 treatments), end of study (day 26)
Description: as §1
Body weights of CD-1 mice were measured at the end of the study, and the average body weight for each group is presented in the table below. Modified oligonucleotides that caused any changes in organ weights outside the expected range for modified oligonucleotides were excluded from further studies.

| Substance | Antiproliferative effect (cell proliferation, luminescence) (NCI H747 cells; 0.04 μM) [% UTC] | Antiproliferative effect (cell proliferation, luminescence) (NCI H747 cells; 0.2 μM) [% UTC] | Antiproliferative effect (cell proliferation, luminescence) (NCI H747 cells; 1 μM) [% UTC] | Antiproliferative effect (cell proliferation, luminescence) (NCI H747 cells; 5 μM) [% UTC] | human Yap1 mRNA expression (Yap1 mRNA [1]; 0.04 μM) [% UTC] | human Yap1 mRNA expression (Yap1 mRNA [1]; 0.2 μM) [% UTC] | human Yap1 mRNA expression (Yap1 mRNA [1]; 1 μM) [% UTC] | human Yap1 mRNA expression (Yap1 mRNA [1]; 5 μM) [% UTC] | Antiproliferative effect (cell proliferation, luminescence) (SNU-1066 cells; 0.04 μM) [% UTC] | Antiproliferative effect (cell proliferation, luminescence) (SNU-1066 cells; 0.2 μM) [% UTC] | Antiproliferative effect (cell proliferation, luminescence) (SNU-1066 cells; 1 μM) [% UTC] | Antiproliferative effect (cell proliferation, luminescence) (SNU-1066 cells; 5 μM) [% UTC] | human Yap1 mRNA expression (Yap1 mRNA [2]; 0.04 μM) [% UTC] | human Yap1 mRNA expression (Yap1 mRNA [2]; 0.2 μM) [% UTC] | human Yap1 mRNA expression (Yap1 mRNA [2]; 1 μM) [% UTC] | human Yap1 mRNA expression (Yap1 mRNA [2]; 5 μM) [% UTC] | human Yap1 mRNA expression (Yap1 mRNA [3]; 0.04 μM) [% UTC] | human Yap1 mRNA expression (Yap1 mRNA [3]; 0.2 μM) [% UTC] | human Yap1 mRNA expression (Yap1 mRNA [3]; 1 μM) [% UTC] | human Yap1 mRNA expression (Yap1 mRNA [3]; 5 μM) [% UTC] | also measured |
| --- | --- | --- | --- | --- | --- | --- | --- | --- | --- | --- | --- | --- | --- | --- | --- | --- | --- | --- | --- | --- | --- |
| 715487 (kA*kT*kT*dA*d[5mC]*dT*dT*d[5mC]*dA*dT*dA*dG*d[5mC]*kT*kT*kA) [compound 715487] | 91 | 86 | 65 | 42 | 81 | 41 | 12 | 6 | 97 | 86 | 72 | 47 | 74 | 44 | 21 | 11 | 81 | 46 | 23 | 13 | human Yap1 mRNA expression (Yap1 mRNA [4]; 0.04 μM): 68 % UTC; human Yap1 mRNA expression (Yap1 mRNA [4]; 0.2 μM): 28 % UTC; human Yap1 mRNA expression (Yap1 mRNA [4]; 1 μM): 16 % UTC; human Yap1 mRNA expression (Yap1 mRNA [4]; 5 μM): 11 % UTC |
| 1198872 (TGTATGTCAGAAGAGT; chemically modified gapmer, further chemistry not given here) [compound 1198872] | – | – | – | – | – | – | – | – | – | – | – | – | – | – | – | – | – | – | – | – | ALT [5]: 192 U/L; AST [5]: 207 U/L; BUN [5]: 22 mg/dL; TBIL [5]: 0.25 mg/dL; Kidney weight [6]: 0.40 g; Liver weight [6]: 1.84 g; Spleen weight [6]: 0.16 g; body weight [6]: 34 g |
| CGCCGATAAGGTACAC (cEt gapmer, phosphorothioate backbone, further chemistry not given here) [ION 792169, reference compound] | 89 | 97 | 91 | 80 | 106 | 106 | 91 | 85 | 100 | 104 | 102 | 96 | 86 | 94 | 96 | 101 | 92 | 106 | 105 | 104 | human Yap1 mRNA expression (Yap1 mRNA [4]; 0.04 μM): 99 % UTC; human Yap1 mRNA expression (Yap1 mRNA [4]; 0.2 μM): 92 % UTC; human Yap1 mRNA expression (Yap1 mRNA [4]; 1 μM): 85 % UTC; human Yap1 mRNA expression (Yap1 mRNA [4]; 5 μM): 97 % UTC |
| 1198439 (AGTGTATGTCAGAAGA; sugar, 5-methylcytosine, phosphorothioate modifications, further chemistry not given here) [compound 1198439] | – | – | – | – | – | – | – | – | – | – | – | – | – | – | – | – | – | – | – | – | ALT [5]: 210 U/L; AST [5]: 219 U/L; BUN [5]: 18 mg/dL; TBIL [5]: 0.25 mg/dL; Kidney weight [6]: 0.51 g; Liver weight [6]: 2.03 g; Spleen weight [6]: 0.25 g; body weight [6]: 36 g |
| 1198440 (AAGTGTATGTCAGAAG; cEt, 2'-MOE, 5-methylcytosine, phosphorothioate modifications, further chemistry not given here) [compound 1198440] | 87 | 66 | 36 | 18 | 43 | 14 | 5 | 5 | 89 | 66 | 58 | 43 | 53 | 18 | 6 | 2 | 63 | 27 | 11 | 5 | ALT [5]: 121 U/L; AST [5]: 140 U/L; BUN [5]: 19 mg/dL; TBIL [5]: 0.22 mg/dL; Kidney weight [6]: 0.46 g; Liver weight [6]: 1.97 g; Spleen weight [6]: 0.18 g; body weight [6]: 35 g; human Yap1 mRNA expression (Yap1 mRNA [4]; 0.04 μM): 40 % UTC; human Yap1 mRNA expression (Yap1 mRNA [4]; 0.2 μM): 10 % UTC; human Yap1 mRNA expression (Yap1 mRNA [4]; 1 μM): 7 % UTC; human Yap1 mRNA expression (Yap1 mRNA [4]; 5 μM): 7 % UTC |
